Reference: ChEMBL document CHEMBL6109159, “Discovery of a Potent and Selective Protein Arginine Methyltransferase 5 (PRMT5) PROTAC Degrader” (J Med Chem, 2025)
Calls of active or inactive are those of the source. No cut-off for these calls is given here.

Legend:
Assay type in all cases: cell-based
[1] = target: T1, von Hippel-Lindau disease tumor suppressor/Protein arginine N-methyltransferase 5 (Homo sapiens, UniProt O14744+P40337); assay: PROTAC activity at […]/VHL in human MDA-MB-468 cells assessed as relative protein level at 0.5 uM measured after 24 hrs by Western blot analysis
[2] = target: T2, von Hippel-Lindau disease tumor suppressor/Methylosome protein WDR77 (Homo sapiens, UniProt Q9BQA1+P40337); assay: PROTAC activity at MEP50/VHL in human MDA-MB-468 cells assessed as relative protein level at 0.5 uM measured after 24 hrs by Western blot analysis
[3] = target: T2, von Hippel-Lindau disease tumor suppressor/Methylosome protein WDR77; assay: PROTAC activity at MEP50/VHL in human MDA-MB-468 cells assessed as relative protein level at 5 uM measured after 24 hrs by Western blot analysis
[4] = target: T1, von Hippel-Lindau disease tumor suppressor/Protein arginine N-methyltransferase 5; assay: PROTAC activity at PRMT5/VHL in human MDA-MB-468 cells assessed as relative protein level at 5 uM measured after 24 hrs by Western blot analysis

T2 sequence (P40337 whole entry, looked up): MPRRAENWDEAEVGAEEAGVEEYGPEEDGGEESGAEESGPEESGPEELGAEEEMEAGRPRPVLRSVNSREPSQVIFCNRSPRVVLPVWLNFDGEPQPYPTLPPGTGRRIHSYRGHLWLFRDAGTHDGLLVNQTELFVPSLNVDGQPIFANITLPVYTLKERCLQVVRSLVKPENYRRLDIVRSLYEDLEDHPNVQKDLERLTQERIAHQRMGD
T2 sequence (Q9BQA1 whole entry, looked up): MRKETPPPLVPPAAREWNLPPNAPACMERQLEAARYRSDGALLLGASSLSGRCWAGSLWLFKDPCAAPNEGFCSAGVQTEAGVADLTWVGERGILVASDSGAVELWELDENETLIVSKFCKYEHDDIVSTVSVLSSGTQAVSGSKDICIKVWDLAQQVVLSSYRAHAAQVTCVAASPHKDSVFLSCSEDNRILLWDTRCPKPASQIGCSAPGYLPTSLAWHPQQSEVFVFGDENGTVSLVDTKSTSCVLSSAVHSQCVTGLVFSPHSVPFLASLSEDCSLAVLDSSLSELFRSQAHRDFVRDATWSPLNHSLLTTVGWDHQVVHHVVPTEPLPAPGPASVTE
T1 sequence (O14744 whole entry, looked up): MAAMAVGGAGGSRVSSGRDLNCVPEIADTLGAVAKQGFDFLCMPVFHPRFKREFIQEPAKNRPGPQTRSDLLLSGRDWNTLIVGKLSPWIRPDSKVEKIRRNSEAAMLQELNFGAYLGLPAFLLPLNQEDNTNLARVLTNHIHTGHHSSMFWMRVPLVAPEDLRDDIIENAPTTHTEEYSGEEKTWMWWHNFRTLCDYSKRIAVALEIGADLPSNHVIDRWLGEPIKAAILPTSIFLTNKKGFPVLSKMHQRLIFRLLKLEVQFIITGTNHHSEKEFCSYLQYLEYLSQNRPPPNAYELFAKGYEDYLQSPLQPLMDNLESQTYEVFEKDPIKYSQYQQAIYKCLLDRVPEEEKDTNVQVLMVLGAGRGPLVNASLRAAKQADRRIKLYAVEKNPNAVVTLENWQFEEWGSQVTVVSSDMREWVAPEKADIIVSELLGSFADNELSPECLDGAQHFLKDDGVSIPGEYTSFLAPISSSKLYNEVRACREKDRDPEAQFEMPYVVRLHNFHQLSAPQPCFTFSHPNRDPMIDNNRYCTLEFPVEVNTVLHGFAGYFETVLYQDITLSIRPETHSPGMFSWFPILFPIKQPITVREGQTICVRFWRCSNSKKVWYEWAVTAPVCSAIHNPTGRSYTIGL
T1 sequence (P40337 whole entry, looked up): as the sequence (P40337 whole entry, looked up) above

Activity [1]	Activity [2]	Activity [3]	Activity [4]	SMILES
Active	Active	Active	Active	Cc1ncsc1-c1ccc([C@H](CC(=O)NCCCCCC(=O)N2CCC(Nc3cc(C(=O)NC[C@H](O)CN4CCc5ccccc5C4)ncn3)CC2)NC(=O)[C@@H]2C[C@@H](O)CN2C(=O)[C@@H](NC(=O)C2(F)CC2)C(C)(C)C)cc1
Active	Active	Active	Active	Cc1ncsc1-c1ccc(CNC(=O)[C@@H]2C[C@@H](O)CN2C(=O)[C@@H](NC(=O)C2(F)CC2)C(C)(C)C)c(OCC(=O)NCCCC(=O)N2CCC(Nc3cc(C(=O)NC[C@H](O)CN4CCc5ccccc5C4)ncn3)CC2)c1
Active	Active	Active	Active	Cc1ncsc1-c1ccc(CNC(=O)[C@@H]2C[C@@H](O)CN2C(=O)[C@@H](NC(=O)C2(F)CC2)C(C)(C)C)c(OCC(=O)NCCCCC(=O)N2CCC(Nc3cc(C(=O)NC[C@H](O)CN4CCc5ccccc5C4)ncn3)CC2)c1
Active	Active	Active	Active	Cc1ncsc1-c1ccc([C@H](CC(=O)NCCOCCOCCOCCOCCC(=O)N2CCC(Nc3cc(C(=O)NC[C@H](O)CN4CCc5ccccc5C4)ncn3)CC2)NC(=O)[C@@H]2C[C@@H](O)CN2C(=O)[C@@H](NC(=O)C2(F)CC2)C(C)(C)C)cc1
Active	Active	Active	Active	Cc1ncsc1-c1ccc([C@H](CC(=O)N2CCC(Nc3cc(C(=O)NC[C@H](O)CN4CCc5ccccc5C4)ncn3)CC2)NC(=O)[C@@H]2C[C@@H](O)CN2C(=O)[C@@H](NC(=O)C2(F)CC2)C(C)(C)C)cc1
Active	Active	Active	Active	Cc1ncsc1-c1ccc([C@H](CC(=O)NCCOCCOCCOCCC(=O)N2CCC(Nc3cc(C(=O)NC[C@H](O)CN4CCc5ccccc5C4)ncn3)CC2)NC(=O)[C@@H]2C[C@@H](O)CN2C(=O)[C@@H](NC(=O)C2(F)CC2)C(C)(C)C)cc1
inactive	inactive	Active	inactive	Cc1ncsc1-c1ccc(CNC(=O)[C@@H]2C[C@@H](O)CN2C(=O)[C@@H](NC(=O)C2(F)CC2)C(C)(C)C)c(OCC(=O)NCCOCCOCCOCCOCCC(=O)N2CCC(Nc3cc(C(=O)NC[C@H](O)CN4CCc5ccccc5C4)ncn3)CC2)c1
Active	Active	Active	Active	Cc1ncsc1-c1ccc(CNC(=O)[C@@H]2C[C@@H](O)CN2C(=O)[C@@H](NC(=O)C2(F)CC2)C(C)(C)C)c(OCC(=O)NCCOCCOCCOCCC(=O)N2CCC(Nc3cc(C(=O)NC[C@H](O)CN4CCc5ccccc5C4)ncn3)CC2)c1
Active	Active	Active	Active	Cc1ncsc1-c1ccc(CNC(=O)[C@@H]2C[C@@H](O)CN2C(=O)[C@@H](NC(=O)C2(F)CC2)C(C)(C)C)c(OCC(=O)N2CCC(Nc3cc(C(=O)NC[C@H](O)CN4CCc5ccccc5C4)ncn3)CC2)c1
Active	Active	Active	Active	Cc1ncsc1-c1ccc([C@H](CC(=O)NCCOCCOCCC(=O)N2CCC(Nc3cc(C(=O)NC[C@H](O)CN4CCc5ccccc5C4)ncn3)CC2)NC(=O)[C@@H]2C[C@@H](O)CN2C(=O)[C@@H](NC(=O)C2(F)CC2)C(C)(C)C)cc1
Active	Active	Active	Active	Cc1ncsc1-c1ccc([C@H](C)NC(=O)[C@@H]2C[C@@H](O)CN2C(=O)[C@@H](NC(=O)CCOCCOCCOCCOCCOCCC(=O)N2CCC(Nc3cc(C(=O)NC[C@H](O)CN4CCc5ccccc5C4)ncn3)CC2)C(C)(C)C)cc1
Active	Active	Active	Active	Cc1ncsc1-c1ccc([C@H](CC(=O)NCCCCCCC(=O)N2CCC(Nc3cc(C(=O)NC[C@H](O)CN4CCc5ccccc5C4)ncn3)CC2)NC(=O)[C@@H]2C[C@@H](O)CN2C(=O)[C@@H](NC(=O)C2(F)CC2)C(C)(C)C)cc1
Active	Active	Active	Active	Cc1ncsc1-c1ccc([C@H](C)NC(=O)[C@@H]2C[C@@H](O)CN2C(=O)[C@@H](NC(=O)CCOCCOCCOCCOCCC(=O)N2CCC(Nc3cc(C(=O)NC[C@H](O)CN4CCc5ccccc5C4)ncn3)CC2)C(C)(C)C)cc1
inactive	inactive	Active	inactive	Cc1ncsc1-c1ccc([C@H](C)NC(=O)[C@@H]2C[C@@H](O)CN2C(=O)[C@@H](NC(=O)COCCOCCOCCOCCOCC(=O)N2CC(Nc3cc(C(=O)NC[C@H](O)CN4CCc5ccccc5C4)ccn3)C2)C(C)(C)C)cc1
Active	Active	Active	Active	Cc1ncsc1-c1ccc([C@H](C)NC(=O)[C@@H]2C[C@@H](O)CN2C(=O)[C@@H](NC(=O)COCCOCCOCCOCCOCC(=O)N2CCC(Nc3cc(C(=O)NC[C@H](O)CN4CCc5ccccc5C4)ncn3)CC2)C(C)(C)C)cc1
Active	Active	Active	Active	Cc1ncsc1-c1ccc([C@H](CC(=O)NCCCC(=O)N2CCC(Nc3cc(C(=O)NC[C@H](O)CN4CCc5ccccc5C4)ncn3)CC2)NC(=O)[C@@H]2C[C@@H](O)CN2C(=O)[C@@H](NC(=O)C2(F)CC2)C(C)(C)C)cc1
Active	Active	Active	Active	Cc1ncsc1-c1ccc([C@H](CC(=O)NCCCCC(=O)N2CCC(Nc3cc(C(=O)NC[C@H](O)CN4CCc5ccccc5C4)ncn3)CC2)NC(=O)[C@@H]2C[C@@H](O)CN2C(=O)[C@@H](NC(=O)C2(F)CC2)C(C)(C)C)cc1
Active	Active	Active	Active	Cc1ncsc1-c1ccc(CNC(=O)[C@@H]2C[C@@H](O)CN2C(=O)[C@@H](NC(=O)C2(F)CC2)C(C)(C)C)c(OCC(=O)NCCC(=O)N2CCC(Nc3cc(C(=O)NC[C@H](O)CN4CCc5ccccc5C4)ncn3)CC2)c1
inactive	inactive	inactive	inactive	Cc1ncsc1-c1ccc(CNC(=O)[C@@H]2C[C@@H](O)CN2C(=O)[C@@H](NC(=O)C2(F)CC2)C(C)(C)C)c(OCC(=O)NCCOCCOCCC(=O)N2CCC(Nc3cc(C(=O)NC[C@H](O)CN4CCc5ccccc5C4)ncn3)CC2)c1
inactive	inactive	Active	inactive	Cc1ncsc1-c1ccc(CNC(=O)[C@@H]2C[C@@H](O)CN2C(=O)[C@@H](NC(=O)C2(F)CC2)C(C)(C)C)c(OCC(=O)NCCOCCOCCOCCOCCOCCC(=O)N2CCC(Nc3cc(C(=O)NC[C@H](O)CN4CCc5ccccc5C4)ncn3)CC2)c1
Active	Active	Active	Active	Cc1ncsc1-c1ccc(CNC(=O)[C@@H]2C[C@@H](O)CN2C(=O)[C@@H](NC(=O)C2(F)CC2)C(C)(C)C)c(OCC(=O)NCCCCCC(=O)N2CCC(Nc3cc(C(=O)NC[C@H](O)CN4CCc5ccccc5C4)ncn3)CC2)c1
Active	Active	Active	Active	Cc1ncsc1-c1ccc([C@H](CC(=O)NCC(=O)N2CCC(Nc3cc(C(=O)NC[C@H](O)CN4CCc5ccccc5C4)ncn3)CC2)NC(=O)[C@@H]2C[C@@H](O)CN2C(=O)[C@@H](NC(=O)C2(F)CC2)C(C)(C)C)cc1
Active	Active	Active	Active	Cc1ncsc1-c1ccc(CNC(=O)[C@@H]2C[C@@H](O)CN2C(=O)[C@@H](NC(=O)C2(F)CC2)C(C)(C)C)c(OCC(=O)NCCOCCC(=O)N2CCC(Nc3cc(C(=O)NC[C@H](O)CN4CCc5ccccc5C4)ncn3)CC2)c1
Active	Active	Active	Active	Cc1ncsc1-c1ccc([C@H](CC(=O)NCCC(=O)N2CCC(Nc3cc(C(=O)NC[C@H](O)CN4CCc5ccccc5C4)ncn3)CC2)NC(=O)[C@@H]2C[C@@H](O)CN2C(=O)[C@@H](NC(=O)C2(F)CC2)C(C)(C)C)cc1
Active	Active	Active	Active	Cc1ncsc1-c1ccc([C@H](CC(=O)NCCCCCCCC(=O)N2CCC(Nc3cc(C(=O)NC[C@H](O)CN4CCc5ccccc5C4)ncn3)CC2)NC(=O)[C@@H]2C[C@@H](O)CN2C(=O)[C@@H](NC(=O)C2(F)CC2)C(C)(C)C)cc1
Active	Active	Active	Active	Cc1ncsc1-c1ccc(CNC(=O)[C@@H]2C[C@@H](O)CN2C(=O)[C@@H](NC(=O)C2(F)CC2)C(C)(C)C)c(OCC(=O)NCC(=O)N2CCC(Nc3cc(C(=O)NC[C@H](O)CN4CCc5ccccc5C4)ncn3)CC2)c1
inactive	inactive	inactive	inactive	Cc1ncsc1-c1ccc([C@H](CC(=O)NCCOCCC(=O)N2CCC(Nc3cc(C(=O)NC[C@H](O)CN4CCc5ccccc5C4)ncn3)CC2)NC(=O)[C@@H]2C[C@@H](O)CN2C(=O)[C@@H](NC(=O)C2(F)CC2)C(C)(C)C)cc1
